From the NIST ThermoML archive (doi:10.1021/acs.jced.5b00105)

Test: xn = mol fraction of the nth substance listed
Settings: for surface tension liquid-gas: Drop volume; for viscosity / mass density: 100 kPa, Liquid; for viscosity: Concentric cylinders viscometry; for mass density: Vibrating tube method

CCCCC1CCCCC1 [butylcyclohexane] + CC(C)CC(C)(C)C
Settings | mass density [kg/m3] | surface tension liquid-gas [mN/m] | viscosity [mPa·s]
293.15 K, x1 = 0.0999 | 704.07 | – | 0.567
293.15 K, x1 = 0.1008 | – | 19.63 | –
293.15 K, x1 = 0.2 | – | 20.32 | –
293.15 K, x1 = 0.2002 | 715.88 | – | 0.623
293.15 K, x1 = 0.3001 | 727.35 | 21.02 | 0.679
293.15 K, x1 = 0.3996 | 738.44 | – | 0.744
293.15 K, x1 = 0.3999 | – | 21.75 | –
293.15 K, x1 = 0.5004 | – | 22.42 | –
293.15 K, x1 = 0.5005 | 749.38 | – | 0.816
293.15 K, x1 = 0.5999 | – | 23.17 | –
293.15 K, x1 = 0.6003 | 759.9 | – | 0.896
293.15 K, x1 = 0.6994 | 770.07 | – | 0.981
293.15 K, x1 = 0.6995 | – | 23.97 | –
293.15 K, x1 = 0.7998 | – | 24.87 | –
293.15 K, x1 = 0.8 | 780.14 | – | 1.078
293.15 K, x1 = 0.9 | – | 25.85 | –
293.15 K, x1 = 0.9001 | 789.89 | – | 1.184
293.15 K, x1 = 1 | 799.37 | 26.81 | 1.304
298.15 K, x1 = 0.0999 | 700.02 | – | 0.537
298.15 K, x1 = 0.1008 | – | 19 | –
298.15 K, x1 = 0.2 | – | 19.59 | –
298.15 K, x1 = 0.2002 | 711.89 | – | 0.588
298.15 K, x1 = 0.3001 | 723.39 | 20.24 | 0.64
298.15 K, x1 = 0.3996 | 734.52 | – | 0.698
298.15 K, x1 = 0.3999 | – | 20.9 | –
298.15 K, x1 = 0.5004 | – | 21.56 | –
298.15 K, x1 = 0.5005 | 745.49 | – | 0.763
298.15 K, x1 = 0.5999 | – | 22.29 | –
298.15 K, x1 = 0.6003 | 756.05 | – | 0.835
298.15 K, x1 = 0.6994 | 766.27 | – | 0.912
298.15 K, x1 = 0.6995 | – | 23.1 | –
298.15 K, x1 = 0.7998 | – | 23.95 | –
298.15 K, x1 = 0.8 | 776.35 | – | 0.998
298.15 K, x1 = 0.9 | – | 24.93 | –
298.15 K, x1 = 0.9001 | 786.12 | – | 1.093
298.15 K, x1 = 1 | 795.63 | 25.87 | 1.199
303.15 K, x1 = 0.0999 | 695.93 | 18.58 | 0.51
303.15 K, x1 = 0.2002 | 707.85 | 19.11 | 0.556
303.15 K, x1 = 0.3001 | 719.4 | 19.81 | 0.605
303.15 K, x1 = 0.3996 | 730.57 | 20.49 | 0.657
303.15 K, x1 = 0.5005 | 741.58 | 21.39 | 0.717
303.15 K, x1 = 0.6003 | 752.17 | 21.79 | 0.781
303.15 K, x1 = 0.6994 | 762.43 | 22.68 | 0.851
303.15 K, x1 = 0.8 | 772.54 | 23.51 | 0.929
303.15 K, x1 = 0.9001 | 782.34 | 24.53 | 1.014
303.15 K, x1 = 1 | 791.88 | 25.49 | 1.109
308.15 K, x1 = 0.0999 | 691.83 | – | 0.486
308.15 K, x1 = 0.1008 | – | 18.07 | –
308.15 K, x1 = 0.2 | – | 18.59 | –
308.15 K, x1 = 0.2002 | 703.8 | – | 0.528
308.15 K, x1 = 0.3001 | 715.4 | 19.17 | 0.573
308.15 K, x1 = 0.3996 | 726.61 | – | 0.621
308.15 K, x1 = 0.3999 | – | 19.76 | –
308.15 K, x1 = 0.5004 | – | 20.41 | –
308.15 K, x1 = 0.5005 | 737.66 | – | 0.675
308.15 K, x1 = 0.5999 | – | 21.12 | –
308.15 K, x1 = 0.6003 | 748.29 | – | 0.734
308.15 K, x1 = 0.6994 | 758.58 | – | 0.797
308.15 K, x1 = 0.6995 | – | 21.94 | –
308.15 K, x1 = 0.7998 | – | 22.79 | –
308.15 K, x1 = 0.8 | 768.72 | – | 0.868
308.15 K, x1 = 0.9 | – | 23.73 | –
308.15 K, x1 = 0.9001 | 778.55 | – | 0.945
308.15 K, x1 = 1 | 788.12 | 24.73 | 1.031
313.15 K, x1 = 0.0999 | 687.7 | – | 0.464
313.15 K, x1 = 0.2002 | 699.73 | – | 0.502
313.15 K, x1 = 0.3001 | 711.37 | – | 0.544
313.15 K, x1 = 0.3996 | 722.64 | – | 0.588
313.15 K, x1 = 0.5005 | 733.72 | – | 0.638
313.15 K, x1 = 0.6003 | 744.39 | – | 0.691
313.15 K, x1 = 0.6994 | 754.72 | – | 0.749
313.15 K, x1 = 0.8 | 764.89 | – | 0.814
313.15 K, x1 = 0.9001 | 774.76 | – | 0.883
313.15 K, x1 = 1 | 784.35 | – | 0.961
318.15 K, x1 = 0.0999 | 683.64 | – | 0.446
318.15 K, x1 = 0.2002 | 695.56 | – | 0.482
318.15 K, x1 = 0.3001 | 707.24 | – | 0.519
318.15 K, x1 = 0.3996 | 718.6 | – | 0.561
318.15 K, x1 = 0.5005 | 729.73 | – | 0.607
318.15 K, x1 = 0.6003 | 740.43 | – | 0.654
318.15 K, x1 = 0.6994 | 750.82 | – | 0.708
318.15 K, x1 = 0.8 | 760.98 | – | 0.765
318.15 K, x1 = 0.9001 | 770.84 | – | 0.829
318.15 K, x1 = 1 | 780.49 | – | 0.9
323.15 K, x1 = 0.0999 | 679.45 | – | 0.427
323.15 K, x1 = 0.2002 | 691.42 | – | 0.46
323.15 K, x1 = 0.3001 | 703.16 | – | 0.496
323.15 K, x1 = 0.3996 | 714.56 | – | 0.534
323.15 K, x1 = 0.5005 | 725.73 | – | 0.575
323.15 K, x1 = 0.6003 | 736.49 | – | 0.62
323.15 K, x1 = 0.6994 | 746.95 | – | 0.668
323.15 K, x1 = 0.8 | 757.16 | – | 0.721
323.15 K, x1 = 0.9001 | 767.06 | – | 0.779
323.15 K, x1 = 1 | 776.7 | – | 0.844
333.15 K, x1 = 0.0999 | 670.99 | – | 0.396
333.15 K, x1 = 0.2002 | 683.12 | – | 0.424
333.15 K, x1 = 0.3001 | 694.98 | – | 0.454
333.15 K, x1 = 0.3996 | 706.46 | – | 0.487
333.15 K, x1 = 0.5005 | 717.7 | – | 0.522
333.15 K, x1 = 0.6003 | 728.53 | – | 0.56
333.15 K, x1 = 0.6994 | 739.06 | – | 0.601
333.15 K, x1 = 0.8 | 749.37 | – | 0.646
333.15 K, x1 = 0.9001 | 759.38 | – | 0.695
333.15 K, x1 = 1 | 769.09 | – | 0.749
343.15 K, x1 = 0.0999 | 662.4 | – | 0.369
343.15 K, x1 = 0.2002 | 674.66 | – | 0.394
343.15 K, x1 = 0.3001 | 686.64 | – | 0.42
343.15 K, x1 = 0.3996 | 698.25 | – | 0.448
343.15 K, x1 = 0.5005 | 709.63 | – | 0.48
343.15 K, x1 = 0.6003 | 720.57 | – | 0.51
343.15 K, x1 = 0.6994 | 731.21 | – | 0.545
343.15 K, x1 = 0.8 | 741.57 | – | 0.584
343.15 K, x1 = 0.9001 | 751.62 | – | 0.626
343.15 K, x1 = 1 | 761.43 | – | 0.671
